According to patent US11807693B2 (priority 2014, dated 2023):
Like-named read-outs stand apart in the source and are kept apart here. Starred links: 1 amine or outer side, 2 acyl side, 3 side chain; linkers in the order of their positions; H or OH if unused. Non-standard residues stand in square brackets, D forms with d. Residues, ends and D or L forms follow the SMILES beside them. ξ: configuration not given here. *: point of attachment. dBip = N[C@H](Cc1ccc(-c2ccccc2)cc1)C(=O)O; Oic = O=C(O)[C@@H]1C[C@@H]2CCCC[C@@H]2N1; Phe(4-Cl) = N[C@@H](Cc1ccc(Cl)cc1)C(=O)O; Phe(4-I) = N[C@@H](Cc1ccc(I)cc1)C(=O)O; γGlu = O=C(O)[C@H](CCC(=O)[*:2])N[*:1]; d(β3hF) = N[C@@H](CC(=O)O)Cc1ccccc1; Igl = N[C@H](C(=O)O)C1Cc2ccccc2C1; NMeR = CN[C@@H](CCCNC(=N)N)C(=O)O; Palmitoyl = CCCCCCCCCCCCCCCC(=O)*; Tridecanoyl = CCCCCCCCCCCCC(=O)*; hArg = N=C(N)NCCCC[C@H](N)C(=O)O; Tic = O=C(O)[C@@H]1Cc2ccccc2CN1; Cha = N[C@@H](CC1CCCCC1)C(=O)O; NMeL = CN[C@@H](CC(C)C)C(=O)O; ξαMeL = CC(C)CC(C)(N)C(=O)O; β3hP = O=C(O)C[C@@H]1CCCN1; Pip = O=C(O)[C@@H]1CCCCN1; Nle = CCCC[C@H](N)C(=O)O; Orn = NCCC[C@H](N)C(=O)O; ξαMeP = CC1(C(=O)O)CCCN1; ξβ3hV = CC(C)C(N)CC(=O)O; Dap = NC[C@H](N)C(=O)O; AEEA = NCCOCCOCC(=O)O; Aib = CC(C)(N)C(=O)O; NPrGly = CCCNCC(=O)O

Legend:
[1] = target: T1, human APJ receptor (Homo sapiens, UniProt P35414); test: [35S] GTPγS assay, human APJ receptor; type: biochemical
T1 construct: expressed in transfected cells
T1 sequence (P35414 1-380): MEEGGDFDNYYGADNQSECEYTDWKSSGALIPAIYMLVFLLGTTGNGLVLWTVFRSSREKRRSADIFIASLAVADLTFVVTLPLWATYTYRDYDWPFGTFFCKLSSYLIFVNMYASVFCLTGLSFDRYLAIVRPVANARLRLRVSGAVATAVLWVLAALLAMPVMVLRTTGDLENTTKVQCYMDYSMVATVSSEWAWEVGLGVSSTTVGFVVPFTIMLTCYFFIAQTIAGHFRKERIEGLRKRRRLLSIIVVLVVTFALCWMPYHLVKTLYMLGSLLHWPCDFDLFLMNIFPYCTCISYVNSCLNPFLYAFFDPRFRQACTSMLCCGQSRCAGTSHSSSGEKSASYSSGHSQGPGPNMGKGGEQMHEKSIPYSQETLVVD

[2] = In vitro stability in rat plasma; type: in vitro ADME
Method in brief: (§1)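 Apelin peptides were spiked at 5 μM final into rat plasma, liver homogenate or kidney homogenate and incubated at 37° C. for up to 4 hr. Aliquots were quenched with MeOH containing internal standard, centrifuged, and supernatants analyzed by high resolution LC-MS.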

[3] = target: T2, rat APJ receptor (Rattus norvegicus, UniProt Q9JHG3); test: [35S] GTPγS assay, rat APJ receptor; type: biochemical
T2 construct: expressed in transfected cells
T2 sequence (Q9JHG3 1-377): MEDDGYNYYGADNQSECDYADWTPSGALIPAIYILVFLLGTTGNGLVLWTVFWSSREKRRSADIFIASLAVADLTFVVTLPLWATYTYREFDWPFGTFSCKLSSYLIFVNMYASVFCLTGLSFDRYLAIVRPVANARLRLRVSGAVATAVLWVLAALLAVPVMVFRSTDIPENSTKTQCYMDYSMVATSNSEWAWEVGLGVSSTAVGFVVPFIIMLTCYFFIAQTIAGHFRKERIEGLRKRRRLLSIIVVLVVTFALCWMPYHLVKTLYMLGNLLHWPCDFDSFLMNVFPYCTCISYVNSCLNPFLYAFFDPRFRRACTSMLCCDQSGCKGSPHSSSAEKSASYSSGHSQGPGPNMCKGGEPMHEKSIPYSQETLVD
Description: The membranes were incubated with modified peptides in the assay buffer. […] Bound [^35S] GTPγS was separated from free radiolabel by filtration. The filter bound radioactivity was determined by liquid scintillation counting.

[4] = In vitro stability in rat liver homogenate; type: in vitro ADME; settings: tissue homogenate
Method in brief: as §1

[5] = In vitro stability in rat kidney homogenate; type: in vitro ADME; settings: rat, tissue homogenate
Method in brief: as §1

[6] = rat APJ receptor, read-out: EC50 Rat APJ Receptor

Row | Compound | EC50 ([1]; Table 16) [nM] | remaining at 4 h, 5 μM [2] [%] | EC50 ([3]; Table 16, read-out: EC50 Rat APJ Receptor) [nM] | remaining at 4 h, 5 μM [4] [%] | EC50 ([1]; human APJ receptor) [nM] | remaining at 4 h, 5 μM [5] [%] | EC50 [3, 6] [nM]
1 | CCCCCCCCCCCCC(=O)N[C@@H](CCC(=O)NCCOCCOCC(=O)NCCOCCOCC(=O)N[C@@H](CCC(N)=O)C(=O)N[C@@H](CCC(=O)O)C(=O)N1CCC[C@H]1C(=O)N(C)[C@@H](CCCNC(=N)N)C(=O)N[C@@H](CC(C)C)C(=O)N[C@@H](CO)C(=O)N[C@@H](Cc1c[nH]cn1)C(=O)N[C@@H](CCCCN)C(=O)NCC(=O)N1CCC[C@H]1C(=O)N[C@@H](CCCC)C(=O)N1CCC[C@H]1C(=O)N[C@@H](Cc1ccc(Cl)cc1)C(=O)O)C(=O)O [compound 475] ({Tridecanoyl-γGlu-AEEA-AEEA}-QEP[NMeR]LSHKGP[Nle]P[Phe(4-Cl)]-OH) | 10.3 | 33 | 35.8 | < 1 | – | – | –
2 | CCCCCCCCCCCCC(=O)N[C@@H](CCC(=O)NCCOCCOCC(=O)NCCOCCOCC(=O)NC(CC(=O)N[C@@H](CCCNC(=N)N)C(=O)N1CCCC1(C)C(=O)N[C@@H](CCCCNC(=N)N)C(=O)NC(C)(CC(C)C)C(=O)N[C@@H](CO)C(=O)N[C@@H](Cc1c[nH]cn1)C(=O)N[C@@H](CCCCN)C(=O)NCC(=O)N1[C@H](C(=O)N[C@@H](CCCC)C(=O)N2CCCC2(C)C(=O)N[C@@H](Cc2ccc(Cl)cc2)C(=O)O)C[C@@H]2CCCC[C@@H]21)C(C)C)C(=O)O (stereo partly drawn) [compound 552] ({Tridecanoyl-γGlu-AEEA-AEEA}-[ξβ3hV]R[ξαMeP][hArg][ξαMeL]SHKG[Oic][Nle][ξαMeP][Phe(4-Cl)]-OH) | – | > 90 | – | 40 | 1.95 | 18 | –
3 | CCCCCCCCCCCCC(=O)N[C@@H](CCC(=O)NCCOCCOCC(=O)NCCOCCOCC(=O)N[C@@H](CCCC)C(=O)N[C@H](CCCNC(=N)N)C(=O)N[C@@H](CCC(N)=O)C(=O)N[C@@H](CCCCNC(=N)N)C(=O)N1CCC[C@H]1C(=O)N[C@H](CCCNC(=N)N)C(=O)N(C)[C@@H](CC(C)C)C(=O)N[C@@H](C)C(=O)N[C@@H](Cc1c[nH]cn1)C(=O)N[C@@H](CCCCN)C(=O)NCC(=O)N1[C@H](C(=O)N[C@@H](Cc2ccc(I)cc2)C(=O)N2CCC[C@H]2C(=O)N[C@H](Cc2ccc(-c3ccccc3)cc2)C(=O)O)C[C@@H]2CCCC[C@@H]21)C(=O)O [compound 320] ({Tridecanoyl-γGlu-AEEA-AEEA}-[Nle][dR]Q[hArg]P[dR][NMeL]AHKG[Oic][Phe(4-I)]P[dBip]-OH) | – | > 90 | – | 86.5 | 17.8 | 73.4 | –
4 | CCCCCCCCCCCCCCCC(=O)N[C@@H](CCC(=O)NCCOCCOCC(=O)NCCOCCOCC(=O)N[C@H](CCC(N)=O)C(=O)N[C@@H](CCCNC(=N)N)C(=O)N1CCC[C@H]1C(=O)N(C)[C@@H](CCCNC(=N)N)C(=O)N[C@@H](CC1CCCCC1)C(=O)N[C@@H](CO)C(=O)N[C@@H](Cc1c[nH]cn1)C(=O)N[C@@H](CCCCN)C(=O)NCC(=O)N1CCCC[C@H]1C(=O)N[C@@H](CCCC)C(=O)N1CCC[C@H]1C(=O)N1Cc2ccccc2C[C@H]1C(=O)O)C(=O)O [compound 598] ({Palmitoyl-γGlu-AEEA-AEEA}-[dQ]RP[NMeR][Cha]SHKG[Pip][Nle]P[Tic]-OH) | – | – | – | – | 0.463 | – | 2.85
5 | CCCCCCCCCCCCCCCC(=O)N[C@@H](CCC(=O)NCCOCCOCC(=O)NCCOCCOCC(=O)N[C@H](CCC(N)=O)C(=O)N[C@@H](CCCNC(=N)N)C(=O)N1CCC[C@H]1C(=O)N(C)[C@@H](CCCNC(=N)N)C(=O)N[C@@H](CC1CCCCC1)C(=O)N[C@@H](CO)C(=O)N[C@@H](Cc1c[nH]cn1)C(=O)N[C@@H](CCCN)C(=O)NCC(=O)N1[C@H](C(=O)N[C@@H](CCCC)C(=O)N2CCC[C@H]2CC(=O)N[C@@H](CC(=O)O)Cc2ccccc2)C[C@@H]2CCCC[C@@H]21)C(=O)O [compound 618] ({Palmitoyl-γGlu-AEEA-AEEA}-[dQ]RP[NMeR][Cha]SH[Orn]G[Oic][Nle][β3hP][d(β3hF)]-OH) | – | – | – | – | 2.47 | – | 11.1
6 | CCCCCCCCCCCCC(=O)N[C@@H](CCC(=O)NCCOCCOCC(=O)NCCOCCOCC(=O)N[C@H](CCC(N)=O)C(=O)N[C@@H](CCCNC(=N)N)C(=O)N1CCC[C@H]1C(=O)N[C@@H](CCC(=O)O)C(=O)N[C@@H](CC1CCCCC1)C(=O)N[C@@H](CO)C(=O)N[C@@H](Cc1c[nH]cn1)C(=O)N[C@@H](CCCCN)C(=O)NCC(=O)N1[C@H](C(=O)N[C@@H](CCCC)C(=O)NC(C)(C)C(=O)N[C@@H](Cc2ccc(Cl)cc2)C(=O)O)C[C@@H]2CCCC[C@@H]21)C(=O)O [compound 526] ({Tridecanoyl-γGlu-AEEA-AEEA}-[dQ]RPE[Cha]SHKG[Oic][Nle][Aib][Phe(4-Cl)]-OH) | 2.02 | > 90 | – | 5 | – | < 1 | –
7 | CC(C)C[C@@H](C(=O)N[C@@H](CO)C(=O)N[C@@H](Cc1c[nH]cn1)C(=O)N[C@@H](CCCCN)C(=O)NCC(=O)N1[C@H](C(=O)N[C@@H](Cc2ccc(I)cc2)C(=O)N2CCC[C@H]2C(=O)N[C@H](Cc2ccc(-c3ccccc3)cc2)C(=O)O)C[C@@H]2CCCC[C@@H]21)N(C)C(=O)[C@@H](CCCNC(=N)N)NC(=O)[C@@H]1CCCN1C(=O)[C@H](CCCCNC(=N)N)NC(=O)[C@H](CCC(N)=O)NC(=O)[C@@H](CCCNC(=N)N)NC(=O)[C@H](CCCCNC(=N)N)NC(=O)COCCOCCNC(=O)COCCOCCNC(=O)CC[C@H](NC(=O)CCCCCCCCC(=O)O)C(=O)O [compound 289] | – | – | – | – | 0.914 | – | 1.3
8 | CCCCCCCCCCCCCCCC(=O)N[C@@H](CCC(=O)NCCOCCOCC(=O)NCCOCCOCC(=O)N[C@H](CCC(N)=O)C(=O)N[C@@H](CCCNC(=N)N)C(=O)N1CCC[C@H]1C(=O)N(C)[C@@H](CCCNC(=N)N)C(=O)N[C@@H](CC1CCCCC1)C(=O)N(CCC)CC(=O)N[C@@H](Cc1c[nH]cn1)C(=O)N[C@@H](CCCCN)C(=O)NCC(=O)N1CCCC[C@H]1C(=O)N[C@@H](CCCC)C(=O)NC(C)(C)C(=O)N[C@@H](Cc1ccc(Cl)cc1)C(=O)O)C(=O)O [compound 643] ({Palmitoyl-γGlu-AEEA-AEEA}-[dQ]RP[NMeR][Cha][NPrGly]HKG[Pip][Nle][Aib][Phe(4-Cl)]-OH) | – | – | – | – | 0.463 | – | 3.79
9 | CCCCCCCCCCCCC(=O)N[C@@H](CCC(=O)NCCOCCOCC(=O)NCCOCCOCC(=O)N[C@@H](CCCCNC(=N)N)C(=O)N[C@H](CCCNC(=N)N)C(=O)N[C@@H](CCC(N)=O)C(=O)N[C@@H](CCCCNC(=N)N)C(=O)N1CCC[C@H]1C(=O)N[C@@H](CCCCN)C(=O)N(C)[C@@H](CC(C)C)C(=O)N[C@@H](CO)C(=O)N[C@@H](Cc1c[nH]cn1)C(=O)N[C@@H](CCCC)C(=O)NCC(=O)N1[C@H](C(=O)N[C@@H](Cc2ccc(I)cc2)C(=O)N2CCC[C@H]2C(=O)N[C@H](Cc2ccc(-c3ccccc3)cc2)C(=O)O)C[C@@H]2CCCC[C@@H]21)C(=O)O [compound 313] ({Tridecanoyl-γGlu-AEEA-AEEA}-[hArg][dR]Q[hArg]PK[NMeL]SH[Nle]G[Oic][Phe(4-I)]P[dBip]-OH) | – | – | – | – | 14.7 | – | 10.4
10 | CCCCCCCCCCCCCCCC(=O)N[C@@H](CCC(=O)NCCOCCOCC(=O)NCCOCCOCC(=O)N[C@H](CCC(N)=O)C(=O)N[C@@H](CCCNC(=N)N)C(=O)N1CCC[C@H]1C(=O)N(C)[C@@H](CCCNC(=N)N)C(=O)N[C@@H](CC1CCCCC1)C(=O)N[C@@H](CO)C(=O)N[C@@H](CN)C(=O)N[C@@H](CCCCN)C(=O)NCC(=O)N1[C@H](C(=O)N[C@@H](CCCC)C(=O)N2CCC[C@H]2CC(=O)N[C@@H](CC(=O)O)Cc2ccccc2)C[C@@H]2CCCC[C@@H]21)C(=O)O [compound 616] ({Palmitoyl-γGlu-AEEA-AEEA}-[dQ]RP[NMeR][Cha]S[Dap]KG[Oic][Nle][β3hP][d(β3hF)]-OH) | – | – | – | – | 2.75 | – | 17.2
11 | CCCCCCCCCCCCCCCC(=O)N[C@@H](CCC(=O)NCCOCCOCC(=O)NCCOCCOCC(=O)N[C@H](CCC(N)=O)C(=O)N[C@@H](CCCNC(=N)N)C(=O)N1CCC[C@H]1C(=O)N(C)[C@@H](CCCNC(=N)N)C(=O)N[C@@H](CC1CCCCC1)C(=O)N[C@@H](CO)C(=O)N[C@@H](Cc1c[nH]cn1)C(=O)N[C@H](C(=O)NCC(=O)N1[C@H](C(=O)N[C@@H](CCCC)C(=O)N2CCC[C@H]2CC(=O)N[C@@H](CC(=O)O)Cc2ccccc2)C[C@@H]2CCCC[C@@H]21)C1Cc2ccccc2C1)C(=O)O [compound 625] ({Palmitoyl-γGlu-AEEA-AEEA}-[dQ]RP[NMeR][Cha]SH[Igl]G[Oic][Nle][β3hP][d(β3hF)]-OH) | – | – | – | – | 11.1 | – | 20.1
